Test results: ChEMBL document CHEMBL3885881, “DrugMatrix”

Organism: Rattus norvegicus
Assay: DrugMatrix - Regimen: Daily Repeat
Type: toxicity, organism-based, Sprague-Dawley
Design: regimen Daily Repeat, gender Male, age 6-8 weeks
Conditions: in vivo, po, route oral GAVAGE, vehicle 100 % WATER; for ABSOLUTE BASOPHIL / ABSOLUTE EOSINOPHIL / ABSOLUTE LYMPHOCYTE / ABSOLUTE MONOCYTE / ABSOLUTE SEGMENTED NEUTROPHIL / BASOPHIL / EOSINOPHIL / ERYTHROCYTE COUNT / HEMATOCRIT / HEMOGLOBIN / LEUKOCYTE COUNT / LYMPHOCYTE / MEAN CORPUSCULAR HEMOGLOBIN / MEAN CORPUSCULAR HEMOGLOBIN CONCENTRATION / MEAN CORPUSCULAR VOLUME / MONOCYTE / NEUTROPHIL / NUCLEATED RED BLOOD CELLS / PLATELET COUNT: tissue Blood; for ALANINE AMINOTRANSFERASE / ALBUMIN / ALKALINE PHOSPHATASE / ASPARTATE AMINOTRANSFERASE / BLOOD UREA NITROGEN / CARBON DIOXIDE / CHLORIDE / CHOLESTEROL / CREATINE PHOSPHOKINASE / CREATININE / GLUCOSE / LACTATE DEHYDROGENASE / LIPASE / PHOSPHORUS / POTASSIUM / SODIUM / TOTAL BILIRUBIN / TOTAL PROTEIN / URIC ACID: tissue Plasma
[1] = 27 mg/kg, 120 h, dose level Low, time 5 day
[2] = 54 mg/kg, 72 h, dose level High, time 3 day
[3] = 54 mg/kg, 120 h, dose level High, time 5 day

CNNCc1ccc(C(=O)NC(C)C)cc1 [PROCARBAZINE]
ABSOLUTE BASOPHIL [1]: 0 CELLS/uL | ABSOLUTE EOSINOPHIL [1]: 16.67 CELLS/uL | ABSOLUTE LYMPHOCYTE [1]: 6271.33 CELLS/uL | ABSOLUTE MONOCYTE [1]: 33.33 CELLS/uL | ABSOLUTE SEGMENTED NEUTROPHIL [1]: 112 CELLS/uL | BASOPHIL [1]: 0% | EOSINOPHIL [1]: 0.33% | ERYTHROCYTE COUNT [1]: 5.26 x10E6/uL | HEMATOCRIT [1]: 33.2% | HEMOGLOBIN [1]: 13.37 G/DL | LEUKOCYTE COUNT [1]: 6.43 x10E3/uL | LYMPHOCYTE [1]: 97.33% | MEAN CORPUSCULAR HEMOGLOBIN [1]: 25.4 pg | MEAN CORPUSCULAR HEMOGLOBIN CONCENTRATION [1]: 40.27 G/DL | MEAN CORPUSCULAR VOLUME [1]: 63.07 fL | MONOCYTE [1]: 0.67% | NEUTROPHIL [1]: 1.67% | NUCLEATED RED BLOOD CELLS [1]: 0 /100WBC | PLATELET COUNT [1]: 1312.67 x10E3/uL | ALANINE AMINOTRANSFERASE [1]: 59.67 u/L | ALBUMIN [1]: 4.33 G/DL | ALKALINE PHOSPHATASE [1]: 347 u/L | ASPARTATE AMINOTRANSFERASE [1]: 78.67 u/L | BLOOD UREA NITROGEN [1]: 13.67 mg/dL | CARBON DIOXIDE [1]: 33.67 mmol/L | CHLORIDE [1]: 98 MEQ/L | CHOLESTEROL [1]: 69 mg/dL | CREATINE PHOSPHOKINASE [1]: 304.67 u/L | CREATININE [1]: 0.18 mg/dL | GLUCOSE [1]: 140.67 mg/dL | LACTATE DEHYDROGENASE [1]: 152 u/L | LIPASE [1]: 15.33 u/L | PHOSPHORUS [1]: 9.77 mg/dL | POTASSIUM [1]: 5.23 MEQ/L | SODIUM [1]: 144.95 MEQ/L | TOTAL BILIRUBIN [1]: 0.13 mg/dL | TOTAL PROTEIN [1]: 6.07 G/DL | URIC ACID [1]: 0.77 mg/dL | ABSOLUTE BASOPHIL [2]: 0 CELLS/uL | ABSOLUTE EOSINOPHIL [2]: 27.33 CELLS/uL | ABSOLUTE LYMPHOCYTE [2]: 4383.67 CELLS/uL | ABSOLUTE MONOCYTE [2]: 36 CELLS/uL | ABSOLUTE SEGMENTED NEUTROPHIL [2]: 119.67 CELLS/uL | BASOPHIL [2]: 0% | EOSINOPHIL [2]: 0.67% | ERYTHROCYTE COUNT [2]: 5.22 x10E6/uL | HEMATOCRIT [2]: 33.2% | HEMOGLOBIN [2]: 13 G/DL | LEUKOCYTE COUNT [2]: 4.57 x10E3/uL | LYMPHOCYTE [2]: 96% | MEAN CORPUSCULAR HEMOGLOBIN [2]: 24.93 pg | MEAN CORPUSCULAR HEMOGLOBIN CONCENTRATION [2]: 39.17 G/DL | MEAN CORPUSCULAR VOLUME [2]: 63.7 fL | MONOCYTE [2]: 0.67% | NEUTROPHIL [2]: 2.67% | NUCLEATED RED BLOOD CELLS [2]: 0 /100WBC | PLATELET COUNT [2]: 1130.67 x10E3/uL | ALANINE AMINOTRANSFERASE [2]: 49.67 u/L | ALBUMIN [2]: 4.13 G/DL | ALKALINE PHOSPHATASE [2]: 355.67 u/L | ASPARTATE AMINOTRANSFERASE [2]: 81.67 u/L | BLOOD UREA NITROGEN [2]: 13 mg/dL | CARBON DIOXIDE [2]: 33.67 mmol/L | CHLORIDE [2]: 100 MEQ/L | CHOLESTEROL [2]: 90 mg/dL | CREATINE PHOSPHOKINASE [2]: 291.67 u/L | CREATININE [2]: 0.1 mg/dL | GLUCOSE [2]: 146.67 mg/dL | LACTATE DEHYDROGENASE [2]: 99 u/L | LIPASE [2]: 9 u/L | PHOSPHORUS [2]: 9.63 mg/dL | POTASSIUM [2]: 5.66 MEQ/L | SODIUM [2]: 145.5 MEQ/L | TOTAL BILIRUBIN [2]: 0.1 mg/dL | TOTAL PROTEIN [2]: 6 G/DL | URIC ACID [2]: 0.43 mg/dL | ABSOLUTE BASOPHIL [3]: 0 CELLS/uL | ABSOLUTE EOSINOPHIL [3]: 0 CELLS/uL | ABSOLUTE LYMPHOCYTE [3]: 3873.67 CELLS/uL | ABSOLUTE MONOCYTE [3]: 49.33 CELLS/uL | ABSOLUTE SEGMENTED NEUTROPHIL [3]: 210.33 CELLS/uL | BASOPHIL [3]: 0% | EOSINOPHIL [3]: 0% | ERYTHROCYTE COUNT [3]: 5.43 x10E6/uL | HEMATOCRIT [3]: 33.9% | HEMOGLOBIN [3]: 13.27 G/DL | LEUKOCYTE COUNT [3]: 4.13 x10E3/uL | LYMPHOCYTE [3]: 93.33% | MEAN CORPUSCULAR HEMOGLOBIN [3]: 24.43 pg | MEAN CORPUSCULAR HEMOGLOBIN CONCENTRATION [3]: 39.13 G/DL | MEAN CORPUSCULAR VOLUME [3]: 62.37 fL | MONOCYTE [3]: 1% | NEUTROPHIL [3]: 5.67% | NUCLEATED RED BLOOD CELLS [3]: 0 /100WBC | PLATELET COUNT [3]: 1552.67 x10E3/uL | ALANINE AMINOTRANSFERASE [3]: 57.33 u/L | ALBUMIN [3]: 4.33 G/DL | ALKALINE PHOSPHATASE [3]: 297.33 u/L | ASPARTATE AMINOTRANSFERASE [3]: 75.67 u/L | BLOOD UREA NITROGEN [3]: 15.33 mg/dL | CARBON DIOXIDE [3]: 34 mmol/L | CHLORIDE [3]: 97.67 MEQ/L | CHOLESTEROL [3]: 81 mg/dL | CREATINE PHOSPHOKINASE [3]: 273.67 u/L | CREATININE [3]: 0.13 mg/dL | GLUCOSE [3]: 134.67 mg/dL | LACTATE DEHYDROGENASE [3]: 135.33 u/L | LIPASE [3]: 10 u/L | PHOSPHORUS [3]: 9.93 mg/dL | POTASSIUM [3]: 6 MEQ/L | SODIUM [3]: 143.97 MEQ/L | TOTAL BILIRUBIN [3]: 0.17 mg/dL | TOTAL PROTEIN [3]: 6.13 G/DL | URIC ACID [3]: 0.97 mg/dL
